Reference: paper PMC12040169 (PLOS Biology, 2025)

How the values were obtained:
[1] = test system: T1, CTL2-GFP (C. trachomatis L2/434/Bu, GFP-expressing); assay: microbe, parasite or virus in culture; design: Intracellular C. trachomatis growth in HeLa cells, bulk GFP fluorescence relative to DMSO; conditions: Chlamydia trachomatis, HeLa, 28.5 h; bulk GFP, mean of 2; read-out: % of control remaining
T1 construct: L2/434/Bu, GFP-expressing
Method: MICs were calculated as described above.

[2] = test system: T2, C. trachomatis L2/434/Bu expressing GFP (CTL2-GFP); assay: microbe, parasite or virus in culture; design: C. trachomatis total inclusion area by high-content imaging, normalised to DMSO; conditions: Chlamydia trachomatis, HeLa, 28.5 h; total inclusion area; read-out: % of control remaining
T2 construct: L2/434/Bu GFP intracellular growth in HeLa cells
How it was run: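 Infected cells treated with library compounds were read for bulk GFP (chlamydial growth) and resorufin fluorescence (host viability), then fixed, Hoechst-stained and imaged. Inclusion area and number from GFP, plus nuclei counts, served as additional growth and viability proxies; MICs derived as previously described.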

[3] = in vitro; design: Viability of infected HeLa host cells, resazurin conversion, bulk resorufin fluorescence relative to DMSO; conditions: human, hela cells; bulk resorufin, mean of 2

Structure (SMILES)	activity at 1 µM [1] [%]	activity at 5 µM [1] [%]	activity at 10 µM [1] [%]	activity at 1 µM [2] [%]	activity at 5 µM [2] [%]	activity at 10 µM [2] [%]	viability at 28.5 h, 1 µM [3] [%]	viability at 28.5 h, 5 µM [3] [%]	viability at 28.5 h, 10 µM [3] [%]
Oc1ccccc1Nc1nc(NC2CCCC2)c2ccccc2n1 [CBK268402C]	120	45.9	9.92	43.4	23.2	4.48	90.7	94.1	104
N=C(N)SCc1csc(-c2ccc(Br)cc2)n1 [CBK017064C]	126	97.9	33.1	80.7	91.3	25.6	90.5	88.9	91.1
Cc1cccc(-c2ccc(CC3(C(N)=O)CCN(C(=O)CCc4ccccc4)CC3)cc2)c1 [CBK285796]	133	4.53	4.56	113	4.18	1.3	91.6	96.9	106
Cc1noc(NS(=O)(=O)c2ccc(NC(=O)/C=C/c3ccc(C(C)C)cc3)cc2)c1C [CBK265430]	66.5	26.3	11.6	69.9	23.1	22.2	108	102	106
COc1cccc(CNc2ccc(N3CCOCC3)cc2)c1OCc1ccccc1F [CBK074406]	135	97.1	65.4	130	63.6	41.5	86.4	83.8	90.9
O=[N+]([O-])c1cccc(C(Nc2cccnc2)c2cc(Cl)c3cccnc3c2O)c1 (stereo not drawn) [CBK268629]	102	82	56.2	104	93.6	47.5	93.9	88.9	91.6
COc1nccnc1NS(=O)(=O)c1ccc(Nc2c([N+](=O)[O-])cc([N+](=O)[O-])c3nonc23)cc1 [CBK261441]	33.2	18	10.6	42.6	28.1	24.2	90.8	95.9	94.2
O=C(Nc1ccc(F)cc1)c1[nH]c2ccccc2c1NS(=O)(=O)c1cc(Cl)sc1Cl [CBK050094]	151	124	118	126	99.9	62.7	90	96.8	86.9
COc1ccc(-c2csc(/C(C#N)=C/Nc3ccc(S(=O)(=O)Nc4nccs4)cc3)n2)cc1 [CBK262374]	146	131	113	134	95	96.5	99.9	95.6	96.2
CC(=O)Nc1ccc(-c2cccc(COC3CCN(C(=O)c4ccc(OC(C)C)cc4)CC3)c2)cc1 [CBK149485]	107	30.6	6.64	97.4	32.5	7.93	89.4	92.4	93.9
CCc1cc(-c2n[nH]cc2-c2nc(C)cs2)c(O)cc1OC [CBK287934]	133	62.2	7.47	87.9	31.5	6.53	101	96.8	94.8
Cc1cc(C)c2c(N)c(C(=O)Nc3ccc(Br)cc3)sc2n1 [CBK072019]	107	95.1	100	98.4	59.7	91	97.9	98.9	106
O=C(NCCc1c[nH]c2ccc(Cl)cc12)c1ccc(Cl)cc1Br [CBK159755]	100	71.3	19.1	91	79.9	32.4	89	88.9	93.1
O=C1Oc2nc3ccccc3cc2CN1C1CC1 [CBK282870]	0.777	1.12	3.61	0.264	0.496	0.404	112	112	98.4
Cc1ccc2[nH]c3c(c2c1)CCOC31CCN(Cc2ccccc2-c2ccccc2)CC1 [CBK039915]	69.3	33.8	27.9	27.9	15.9	7.2	99.1	93.6	100
Cc1cc(OCC(=O)Nc2ccc(S(=O)(=O)Nc3onc(C)c3C)cc2)cc(C)c1Cl [CBK263491]	59.3	15.2	5.2	55.4	25.5	11.8	103	100	117
Cn1c(=O)c2c(ncn2Cc2ccccc2)n(C)c1=O [CBK133402]	119	115	111	100	51.9	66.7	111	110	109
CN(C(=O)c1ccc(Cl)c(Cl)c1)[C@H]1CCC[C@H]1N1CCCC1 [CBK003411C]	32.2	0.223	1.01	52.8	1.24	0.29	112	111	118
CC1=C(C)C(=NNC(N)=S)C(C)=C(C)C1=NNC(N)=S [CBK261262]	116	39.1	12.7	96.7	31.5	17.1	90.9	90.8	90.6
Cc1cc(C)c2nc(-c3ccccn3)cc(C(=O)Nc3ccc(S(=O)(=O)Nc4onc(C)c4C)cc3)c2c1 [CBK267775]	95.8	105	66.8	115	111	74.8	100	94.8	98.6
Cc1noc(NS(=O)(=O)c2ccc(NC(=O)COc3ccc(Cl)cc3Cl)cc2)c1C [CBK262142]	103	26.5	14.3	102	49.8	24.6	95.1	97.3	100
CCCCc1ccc(Nc2csc(N)n2)cc1 [CBK020594]	67.9	10.8	6.72	58.1	0.609	0.496	89.3	84.9	76.9
O=[N+]([O-])c1cc([N+](=O)[O-])c2cccnc2c1NNc1nncc2ccccc12 [CBK110409]	107	69	22.1	108	63.9	31	93	89.1	86.6
Cc1ccc(OCc2ccccc2)c(C(CCN(C(C)C)C(C)C)c2ccccc2)c1 (stereo not drawn) [CBK017906]	148	124	61.5	112	73.2	22	91.6	92.3	86
O=[N+]([O-])c1ccc(-n2cnc3ccccc32)c([N+](=O)[O-])c1 [CBK261120]	104	40.1	0	86.4	46.4	2.35	107	88.2	111
